The values that follow come from patent publication US9498513B2, “Antimicrobial bacteria strains and uses thereof” (priority 2010, dated 2016).

The test system of one assay is S. aureus (MRSA). Put plainly: Antimicrobial activity against susceptible and resistant strains (dilution). The format is cell-based, Staphylococcus aureus. The note with it: given as dilution ratio; antibiotics 1.28 mg/ml. On the procedure:
(§1) A concentrated antimicrobial compound (CAC) was prepared as an antimicrobial agent. 2.1 L of an overnight bacterial culture of G346a was centrifuged at 10,000× g for 20 min, and then subject to 0.2 μm filtration. The supernatant was subject to 10-15% TCA precipitation for 1 hour, and then centrifugation at 4,000× for 20 min. The pellet was re-suspended in 3 mL 50 mM NH4HCO3, and then neutralized with 320 μL NH4OH. The resulting concentrated antimicrobial compound (CAC) was tested for its antimicrobial activity against susceptible and resistant strains as shown in TABLE 5.

The next assay relates to A. Baumannii (MDR). The description is as above. It is filed as cell-based, Acinetobacter baumannii. To be noted: given as dilution ratio; antibiotics 1.28 mg/ml. As to the method:
as §1

With `CC1(C)S[C@@H]2[C@H](NC(=O)[C@H](N)c3ccccc3)C(=O)N2[C@H]1C(=O)O` [Ampicillin], the “antimicrobial activity S. aureus (MRSA)” value with S. aureus (MRSA) is “No”. The “antimicrobial activity A. Baumannii (MDR)” value with A. Baumannii (MDR) was “No Inhibition”.

With `CC1(C)S[C@@H]2[C@H](NC(=O)C(C(=O)O)c3ccccc3)C(=O)N2[C@H]1C(=O)O` (stereo partly shown) [Carbenicillin], in the assay with S. aureus (MRSA), the “antimicrobial activity S. aureus (MRSA)” value is given as “No”. For the same compound, the “antimicrobial activity A. Baumannii (MDR)” value in the assay on A. Baumannii (MDR) was “No Inhibition”.
